Laboratory results reported in PubChem BioAssay AID1963973 (Molecular Pharmacology Branch, DTP, NCI, 2024).
pIC50: −log10 of the molar value.

Tested on: 883617-216-R-J1-PDC tumor spheroids, viability
Assay: Anticancer human tumor 883617-216-R-J1-PDC patient-derived bladder carcinoma cell line growth inhibition [PI3K]
Settings: spheroids with HUVEC and MSC; for pIC50: curve of first compound; for viability, T/C: stronger effect = lower value
Summary of the method: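 High-throughput combination screen: PI3K inhibitors crossed with targeted small molecules on complex spheroids of tumor cells, HUVEC and MSCs at 37 degrees C, 5% CO2. Top concentration was at or near clinical Cmax (otherwise 10 microM), with half-log decrements.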

[1] = second compound 0.00316 µM, first compound 0.0316 µM
[2] = second compound 0.00316 µM, first compound 0.1 µM
[3] = second compound 0.00316 µM, first compound 0.316 µM
[4] = second compound 0.00316 µM, first compound 1 µM
[5] = second compound 0.00316 µM, first compound 3.16 µM
[6] = second compound 0.00316 µM, first compound 10 µM
[7] = second compound 0.01 µM, first compound 0.0316 µM
[8] = second compound 0.01 µM, first compound 0.1 µM
[9] = second compound 0.01 µM, first compound 0.316 µM
[10] = second compound 0.01 µM, first compound 1 µM
[11] = second compound 0.01 µM, first compound 3.16 µM
[12] = second compound 0.01 µM, first compound 10 µM
[13] = second compound 0.0316 µM, first compound 0.0316 µM
[14] = second compound 0.0316 µM, first compound 0.1 µM
[15] = second compound 0.0316 µM, first compound 0.316 µM
[16] = second compound 0.0316 µM, first compound 1 µM
[17] = second compound 0.0316 µM, first compound 3.16 µM
[18] = second compound 0.0316 µM, first compound 10 µM
[19] = second compound 0.1 µM, first compound 0.0316 µM
[20] = second compound 0.1 µM, first compound 0.1 µM
[21] = second compound 0.1 µM, first compound 0.316 µM
[22] = second compound 0.1 µM, first compound 1 µM
[23] = second compound 0.1 µM, first compound 3.16 µM
[24] = second compound 0.1 µM, first compound 10 µM
[25] = second compound 0.316 µM, first compound 0.0316 µM
[26] = second compound 0.316 µM, first compound 0.1 µM
[27] = second compound 0.316 µM, first compound 0.316 µM
[28] = second compound 0.316 µM, first compound 1 µM
[29] = second compound 0.316 µM, first compound 3.16 µM
[30] = second compound 0.316 µM, first compound 10 µM
[31] = second compound 1 µM, first compound 0.0316 µM
[32] = second compound 1 µM, first compound 0.1 µM
[33] = second compound 1 µM, first compound 0.316 µM
[34] = second compound 1 µM, first compound 1 µM
[35] = second compound 1 µM, first compound 3.16 µM
[36] = second compound 1 µM, first compound 10 µM
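Note: spheroids exposed to agents for 7 days before the viability read.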

CC(C)NCC(C(=O)N1CCN(c2ncnc3c2C(C)CC3O)CC1)c1ccc(Cl)cc1 (stereo not drawn) + COc1c(OCCCN2CCOCC2)ccc2c3n(c(=NC(=O)c4cnc(N)nc4)nc12)CCN3
pIC50 (second compound 0.00316 µM): 6.32
pIC50 (second compound 0.01 µM): 6.78
pIC50 (second compound 0.0316 µM): > 7.50
pIC50 (second compound 0.1 µM): > 7.50
pIC50 (second compound 0.316 µM): > 7.50
pIC50 (second compound 1 µM): > 7.50
viability, T/C [1]: 89.7%
viability, T/C [2]: 67.4%
viability, T/C [3]: 59.5%
viability, T/C [4]: 41.5%
viability, T/C [5]: 18.4%
viability, T/C [6]: 7.44%
viability, T/C [7]: 63.5%
viability, T/C [8]: 53.7%
viability, T/C [9]: 45.7%
viability, T/C [10]: 26.7%
viability, T/C [11]: 17.2%
viability, T/C [12]: 6.61%
viability, T/C [13]: 44.2%
viability, T/C [14]: 37.1%
viability, T/C [15]: 26.4%
viability, T/C [16]: 27.7%
viability, T/C [17]: 8.87%
viability, T/C [18]: 4.74%
viability, T/C [19]: 22%
viability, T/C [20]: 15%
viability, T/C [21]: 12.2%
viability, T/C [22]: 9.69%
viability, T/C [23]: 5.3%
viability, T/C [24]: 3.5%
viability, T/C [25]: 5.34%
viability, T/C [26]: 5.49%
viability, T/C [27]: 4.1%
viability, T/C [28]: 4.13%
viability, T/C [29]: 3.12%
viability, T/C [30]: 2.45%
viability, T/C [31]: 2.86%
viability, T/C [32]: 3.36%
viability, T/C [33]: 3.4%
viability, T/C [34]: 2.86%
viability, T/C [35]: 3.11%
viability, T/C [36]: 1.47%

CCN1CCN(Cc2ccc(Nc3ncc(F)c(-c4cc(F)c5nc(C)n(C(C)C)c5c4)n3)nc2)CC1 + COc1c(OCCCN2CCOCC2)ccc2c3n(c(=NC(=O)c4cnc(N)nc4)nc12)CCN3
pIC50 (second compound 0.00316 µM): 6.63
pIC50 (second compound 0.01 µM): 7.45
pIC50 (second compound 0.0316 µM): > 8.50
pIC50 (second compound 0.1 µM): > 8.50
pIC50 (second compound 0.316 µM): > 8.50
pIC50 (second compound 1 µM): > 8.50
viability, T/C (second compound 0.00316 µM, first compound 0.00316 µM): 91.3%
viability, T/C (second compound 0.00316 µM, first compound 0.01 µM): 83.5%
viability, T/C [1]: 70.2%
viability, T/C [2]: 57.2%
viability, T/C [3]: 47.6%
viability, T/C [4]: 42.3%
viability, T/C (second compound 0.01 µM, first compound 0.00316 µM): 65.5%
viability, T/C (second compound 0.01 µM, first compound 0.01 µM): 62.2%
viability, T/C [7]: 51.4%
viability, T/C [8]: 40.4%
viability, T/C [9]: 40.7%
viability, T/C [10]: 38.8%
viability, T/C (second compound 0.0316 µM, first compound 0.00316 µM): 36.3%
viability, T/C (second compound 0.0316 µM, first compound 0.01 µM): 31.1%
viability, T/C [13]: 24.8%
viability, T/C [14]: 25.9%
viability, T/C [15]: 24%
viability, T/C [16]: 21.5%
viability, T/C (second compound 0.1 µM, first compound 0.00316 µM): 14.6%
viability, T/C (second compound 0.1 µM, first compound 0.01 µM): 12.9%
viability, T/C [19]: 18.3%
viability, T/C [20]: 11.5%
viability, T/C [21]: 12.6%
viability, T/C [22]: 11.8%
viability, T/C (second compound 0.316 µM, first compound 0.00316 µM): 4.77%
viability, T/C (second compound 0.316 µM, first compound 0.01 µM): 4.9%
viability, T/C [25]: 4.63%
viability, T/C [26]: 4.67%
viability, T/C [27]: 4.91%
viability, T/C [28]: 6.41%
viability, T/C (second compound 1 µM, first compound 0.00316 µM): 2.94%
viability, T/C (second compound 1 µM, first compound 0.01 µM): 3%
viability, T/C [31]: 3.07%
viability, T/C [32]: 3.49%
viability, T/C [33]: 4.44%
viability, T/C [34]: 6.38%

Cn1ncc(Cl)c1-c1cc(C(=O)NC(CN)Cc2cccc(F)c2)sc1Cl (stereo not drawn) + COc1c(OCCCN2CCOCC2)ccc2c3n(c(=NC(=O)c4cnc(N)nc4)nc12)CCN3
pIC50 (second compound 0.00316 µM): 6.33
pIC50 (second compound 0.01 µM): 6.62
pIC50 (second compound 0.0316 µM): > 7.50
pIC50 (second compound 0.1 µM): > 7.50
pIC50 (second compound 0.316 µM): > 7.50
pIC50 (second compound 1 µM): > 7.50
viability, T/C [1]: 83.1%
viability, T/C [2]: 85.4%
viability, T/C [3]: 59%
viability, T/C [4]: 29.6%
viability, T/C [5]: 13.9%
viability, T/C [6]: 5.61%
viability, T/C [7]: 66%
viability, T/C [8]: 61.6%
viability, T/C [9]: 45.4%
viability, T/C [10]: 28.1%
viability, T/C [11]: 10%
viability, T/C [12]: 4.83%
viability, T/C [13]: 33.8%
viability, T/C [14]: 34.7%
viability, T/C [15]: 33.2%
viability, T/C [16]: 15.1%
viability, T/C [17]: 8.09%
viability, T/C [18]: 3.75%
viability, T/C [19]: 17.8%
viability, T/C [20]: 12.7%
viability, T/C [21]: 10.8%
viability, T/C [22]: 8.94%
viability, T/C [23]: 5.15%
viability, T/C [24]: 2.08%
viability, T/C [25]: 6.38%
viability, T/C [26]: 4.23%
viability, T/C [27]: 5.38%
viability, T/C [28]: 5.78%
viability, T/C [29]: 2.33%
viability, T/C [30]: 1.23%
viability, T/C [31]: 3.15%
viability, T/C [32]: 3.32%
viability, T/C [33]: 2.66%
viability, T/C [34]: 2.93%
viability, T/C [35]: 2.39%
viability, T/C [36]: 0.58%

Cn1nccc1Nc1nccc(-c2ccn(C(CO)c3ccc(Cl)c(F)c3)c(=O)c2)n1 (stereo not drawn) + COc1c(OCCCN2CCOCC2)ccc2c3n(c(=NC(=O)c4cnc(N)nc4)nc12)CCN3
pIC50 (second compound 0.00316 µM): 5.48
pIC50 (second compound 0.01 µM): 6.47
pIC50 (second compound 0.0316 µM): > 7.50
pIC50 (second compound 0.1 µM): > 7.50
pIC50 (second compound 0.316 µM): > 7.50
pIC50 (second compound 1 µM): > 7.50
viability, T/C [1]: 83.4%
viability, T/C [2]: 76.7%
viability, T/C [3]: 64.6%
viability, T/C [4]: 65%
viability, T/C [5]: 47.9%
viability, T/C [6]: 40.4%
viability, T/C [7]: 59.4%
viability, T/C [8]: 59.5%
viability, T/C [9]: 51%
viability, T/C [10]: 40.4%
viability, T/C [11]: 39.9%
viability, T/C [12]: 33.8%
viability, T/C [13]: 39.3%
viability, T/C [14]: 33.5%
viability, T/C [15]: 26.7%
viability, T/C [16]: 27.8%
viability, T/C [17]: 21.5%
viability, T/C [18]: 14.3%
viability, T/C [19]: 12.8%
viability, T/C [20]: 12.8%
viability, T/C [21]: 10.5%
viability, T/C [22]: 7.47%
viability, T/C [23]: 6.96%
viability, T/C [24]: 6.94%
viability, T/C [25]: 5.61%
viability, T/C [26]: 3.51%
viability, T/C [27]: 4.13%
viability, T/C [28]: 1.85%
viability, T/C [29]: 1.07%
viability, T/C [30]: 1.21%
viability, T/C [31]: 2.27%
viability, T/C [32]: 1.46%
viability, T/C [33]: 0.6%
viability, T/C [34]: 0.25%
viability, T/C [35]: 0.12%
viability, T/C [36]: 0.12%
